Values after ≈ are worked out from the molar mass of the structure shown. “Also recorded” adds a separate entry of the source. Like-named read-outs stand apart in the source and are kept apart here.
Legend:
staphylococcal = settings: stated or reported, no test in the patent; cited from earlier work
S. aureus BB568 = assay: Minimum inhibitory concentration (MIC) testing in 96-well microtitre trays; assay type: cell-based
Excerpt: (§1) Reagents and bacterial strains: 3-O-(−)-epicatechingallate and (+)-catechin were provided by the Tokyo Food Techno Co., Tokyo, Japan. Octanoic acid and oxacillin were purchased from Sigma (Poole, United Kingdom). The acyl-(+)-catechin derivatives and octanoyl-(−)-epicatechin were synthesised as outlined below. S. aureus BB568 (COL-type strain that carries mecA and pT181) and BB551 (methicillin-sensitive) were provided by Professor B. Berger-Baechi. EMRSA-15 and EMRSA-16 were clinical isolates from the Royal Free Hospital, London. Strains of S. aureus can be considered resistant to methicillin in which growth occurs in the presence of 8 microgram/ml methicillin (National Committee for Clinical Laboratory Standards, 1990—Methods for dilution antimicrobial susceptibility tests for bacteria that grow aerobically (second edition). Document M7-A2. NCCLS, Villanova, Pa., U.S.A.).
(§2) S. aureus ATCC29213 was used as the standard.

EMRSA-15 = assay: as above; assay type: cell-based, S. aureus
Excerpt: as §1, §2

EMRSA-16 [1] = assay: as above; assay type: cell-based, S. aureus
Excerpt: as §1, §2

S. aureus = assay: MIC testing, summary over the three strains tested; assay type: cell-based
Excerpt: as §1, §2

EMRSA-16 [2] = assay: Bacterial membrane damage (BacLight kit, SYTO 9/propidium iodide) and CFU after 10 min exposure; assay type: cell-based, S. aureus; settings: for Membrane Effect % Control (BacLight) / Delta Log 10 (CFU/ml): 10 min exposure; for Delta Log 10 (CFU/ml): Log10 decrease vs control
Description: Bacterial membrane damage: EMRSA-16 was grown overnight in Mueller-Hinton broth at 37° C. The overnight culture was diluted 1:40 into fresh pre-warmed Mueller-Hinton broth and the diluted culture incubated at 37° C., with aeration (200 rpm), until the optical density at 600 nm (OD600) reached 0.7-0.8. The cells were recovered by centrifugation (10.000×g for 10 min), washed once with filtered-sterilized water, and resuspended to 1:10 the original volume in filter-sterilized water. The culture was further diluted 1:20 into water containing ethanol (1 vol %; the solvent was used to dissolve the compounds) or water containing the catechin. The cells were exposed to the compounds for 10 min (at room temperature and gentle shaking), after which a sample was removed for CFU determination and the remainder of the cells were recovered by centrifugation (10.000×g for 10 min). The cell pellet was washed once with water and then resuspended to an OD670 of 0.15.
Damage to the bacterial cytoplasmic membrane was determined with the reagents (SYTO 9 and propidium iodide) contained in the BacLight kit from Molecular Probes Europe BV (Leiden, The Netherlands). An equal mixture (4.5 microliter each) of SYTO 9 dye and propidium iodide was added to 3 ml of sample in a cuvette and the sample mixed by inversion of the cuvette three times. The sample was maintained in the dark for 15 min and the fluorescence of the two dyes was determined with a spectrofluorometer (Jacso FP-750). Both dyes were excited with a wavelength of 485 nm and the emission of SYTO 9 was read at 530 nm (Em1) and propidium iodide was read at 645 nm (Em2). The ratio of SYTO 9 to propidium iodide emissions (R=Em1/Em2) was expressed as a percentage of the control (BacLight value=[Rsample/Rcontrol]×100). The sample removed for CFU determination was serially diluted in 0.1M phosphate-buffered saline (pH 7.4) then plated onto nutrient agar. The number of colonies on the plates was recorded after 24 h incubation at 37° C. and the results expressed as a Log10 decrease in CFU/ml compared to the control sample.
Staphylococcal membrane damage: Damage to the staphylococcal cytoplasmic membrane was assessed by use of the BacLight kit (Molecular Probes Inc.). The kit makes use of two nucleic acid stains, SYTO-9 and propidium iodide, with different spectral properties and abilities to penetrate intact bacterial membranes. SYTO-9 penetrates both intact and damaged membranes while propidium iodide only penetrates damaged membranes. Cells with intact membranes stain fluorescent green while cells with damaged membranes stain fluorescent red. The ratios of green to red fluorescence, for EMRSA-16 exposed to test compounds, are expressed as a percentage of the control and are given in the table below.

[3] = test system: Erythrocytes from defibrinated Horse blood; assay: Erythrocyte haemolysis; assay type: cell-based; settings: 10 min
Description: Erythrocyte haemolysis: Erythrocytes from defibrinated Horse blood (Oxoid) were collected by centrifugation (6,000×g, 3 min) and washed three to four times in 10 mM Tris-HCI (pH 7.4) containing 0.9% NaCI. The erythrocytes were resuspended to 1% in the wash buffer and 200 microliter of cells was added to 1300 microliter of buffer containing the test compound. The sample was mixed gently for 10 min at room temperature and the intact erythrocytes were removed by centrifugation (6,000×g, 3 min). Haemolysis was evaluated by measuring the absorbance of the supernatant at 540 nm. Cells were added to buffer containing 0.5% NH4OH to give an indication of 100% lysis. The results were expressed as a percentage of absorbance reading for 100% lysis. Buffer containing only washed erythrocytes was used to assess the extent of lysis in the absence of the test compound.
Hemolysis: The amount hemoglobin released from horse blood erythrocytes after exposure to the compounds for 10 min was used to assess the effect of the compounds on eukaryotic membranes.

EMRSA-16 [4] = assay: Effect on bacterial growth (viable counts, CFU/ml); assay type: cell-based, S. aureus; settings: for reduction in cell numbers: over six hours
Description: Effect on bacterial growth: EMRSA-16 was grown overnight in Mueller-Hinton broth at 37° C. The overnight culture as diluted 1:400 into 50 ml volumes of pre-warmed (37° C.) Mueller-Hinton broth containing various concentrations of contemplated compounds. The control flask contained ethanol (1 vol %). The flasks were incubated at 37° C. with aeration (200 rpm). At two-hour intervals samples were withdrawn from the flasks, serially diluted in 0.1M phosphate-buffered saline (pH 7.4) solutions, and plated onto nutrient agar (Oxoid). The number of colonies was recorded at 24 h incubation at 37° C. and expressed as the number of CFU/ml.

S. aureus BB551 = assay: Electron microscopy, effect on cell wall morphology; assay type: cell-based; settings: grown overnight in the presence of the compound; electron micrograph
Description: Electron microscopy: S. aureus BB551 was grown overnight at 37° C. in Mueller-Hinton broth in the absence and presence of either epicatechin-(−)-gallate or octanoyl-(+)-catechin. The cells were recovered by centrifugation and washed once in 0.1M phosphate-buffered saline, pH 7.4. Cells were fixed in 1.5% glutaraldehyde for at least 2 h at room temperature, treated with osmium tetroxide and embedded in epoxy resin. Sectioning and staining with uranyl acetate was followed by Reynolds' lead citrate. The ultrathin sections were viewed and photographed using a Philips 201 transmission electron microscope.

[5] = BB568; MIC of the compound itself; 35° C., 24 h
[6] = BB568; oxacillin MIC in the presence of the compound (tested at 0.25×MIC)
[7] = EMRSA-15; MIC of the compound itself; 35° C., 24 h
[8] = EMRSA-15; oxacillin MIC in the presence of the compound (tested at 0.25×MIC)
[9] = EMRSA-16; MIC of the compound itself; 35° C., 24 h
[10] = EMRSA-16; oxacillin MIC in the presence of the compound (tested at 0.25×MIC)
[11] = Staphylococcus aureus, 24 h; read-out: MIC Catechin
[12] = Staphylococcus aureus, 24 h, read-out: MIC Catechin

CCCCC/C=C\C/C=C\CCCCCCCC(=O)O [linoleic acid, linoleic acid (C18:8)]
anti-staphylococcal activity (staphylococcal): anti-staphylococcal activity

CCCCCCCCCCCC(=O)O [dedecanoic acid, dedecanoic acid (lauric acid) (C12:0)]
anti-staphylococcal activity (staphylococcal): anti-staphylococcal activity

Oc1cc(O)c2c(c1)O[C@H](c1ccc(O)c(O)c1)[C@@H](O)C2 [(+)-catechin]
MIC Catechin (S. aureus BB568; [5]): >256 MICROGRAM/ML
MIC Oxacillin (S. aureus BB568; [6]): 256 MICROGRAM/ML
MIC Catechin (EMRSA-15; [7]): >256 MICROGRAM/ML
MIC Oxacillin (EMRSA-15; [8]): 32 MICROGRAM/ML
MIC Catechin (EMRSA-16 [1]; [9]): >256 MICROGRAM/ML
MIC Oxacillin (EMRSA-16 [1]; [10]): 512 MICROGRAM/ML
MIC (S. aureus; the three strains tested): > 256 microgram/ml

CCCCCCCCCCCCCCCCCC(=O)O[C@H]1Cc2c(O)cc(O)cc2O[C@@H]1c1ccc(O)c(O)c1 [3-O-staeoryl-(+)-catechin, 3-O-stearoyl-(+)-catechin]
MIC Catechin (S. aureus BB568; [5]): 32 MICROGRAM/ML
MIC Oxacillin (S. aureus BB568; [6]): 256 MICROGRAM/ML
MIC Catechin (EMRSA-15; [7]): >32 MICROGRAM/ML
MIC Oxacillin (EMRSA-15; [8]): 32 MICROGRAM/ML
MIC Catechin (EMRSA-16 [1]; [9]): >32 MICROGRAM/ML
MIC Oxacillin (EMRSA-16 [1]; [10]): 512 MICROGRAM/ML

CCCCCCCCCC=CCCCCC(=O)O (single isomer, unassigned) [palmitoleic acid isomer (C16:1delta6)]
anti-staphylococcal activity (staphylococcal): anti-staphylococcal activity

CCCCCCCC(=O)O [Octanoic acid]
MIC Oxacillin (S. aureus BB568; [6]): 256 MICROGRAM/ML
MIC (S. aureus BB568; Staphylococcus aureus, BB568, 24 h; read-out: MIC Catechin): 1020 µg/mL (≈ 7100 µM)
MIC Oxacillin (EMRSA-15; [8]): 32 MICROGRAM/ML
MIC (EMRSA-15; [11]): 1020 µg/mL (≈ 7100 µM)
MIC Oxacillin (EMRSA-16 [1]; [10]): 512 MICROGRAM/ML
MIC (EMRSA-16 [1]; [11]): 1020 µg/mL (≈ 7100 µM)
direct activity against S. aureus (S. aureus; result in words): no direct activity; also recorded: not active
capacity to reduce the oxacillin MIC (S. aureus; tested at 0.25×MIC): two-fold
concentration giving significant membrane damage (EMRSA-16 [2]): > 1024 microgram/ml
Membrane Effect % Control (BacLight) (EMRSA-16 [2]; 16 mcg/ml): 74%
Delta Log 10 (CFU/ml) (EMRSA-16 [2]; 16 mcg/ml): −0.1
Membrane Effect % Control (BacLight) (EMRSA-16 [2]; 32 mcg/ml): 75%
Delta Log 10 (CFU/ml) (EMRSA-16 [2]; 32 mcg/ml): 0.1
Membrane Effect % Control (BacLight) (EMRSA-16 [2]; 64 mcg/ml): 2%
Delta Log 10 (CFU/ml) (EMRSA-16 [2]; 64 mcg/ml): >7.0
hemolysis ([3]; 2×MIC): complete hemolysis
% Hemolysis ([3]; horse, 16 mcg/ml, pH 7.4): 3%
% Hemolysis ([3]; horse, 32 mcg/ml, pH 7.4): 4%
% Hemolysis ([3]; horse, 64 mcg/ml, pH 7.4): 100%

O=C(O[C@@H]1Cc2c(O)cc(O)cc2O[C@@H]1c1ccc(O)c(O)c1)c1cc(O)c(O)c(O)c1 [(−)-epicatechingallate, 3-O-(−)-epicatechingallate]
MIC Oxacillin (S. aureus BB568; [6]): <1 MICROGRAM/ML
MIC Oxacillin (S. aureus BB568; BB568; oxacillin MIC in the presence of the compound (tested at 0.25×MIC); listed as epicatechin gallate): less than 1 MICROGRAM/ML
MIC (S. aureus BB568; Staphylococcus aureus, BB568, 24 h, read-out: MIC Catechin): 128 µg/mL (≈ 289 µM)
MIC Oxacillin (EMRSA-15; [8]): 1 MICROGRAM/ML
MIC (EMRSA-15; [12]): 128 µg/mL (≈ 289 µM)
MIC Oxacillin (EMRSA-16 [1]; [10]): 1 MICROGRAM/ML
MIC (EMRSA-16 [1]; [12]): 128 µg/mL (≈ 289 µM)
MIC (S. aureus; Staphylococcus aureus): 64 to 128 µg/mL (≈ 145 to 289 µM)
direct antistaphylococcal activity relative to (+)-catechin (S. aureus; greater activity than (+)-catechin): at least 4 fold
reduction in cell numbers (EMRSA-16 [4]; 512 microgram/ml): 0.3 Log10
reduction in cell numbers (EMRSA-16 [4]; 1024 microgram/ml): 0.85 Log10
reduction in CFU/ml (EMRSA-16 [4]; 1024 microgram/ml, over the 24 h period): 5 Log10
reduction in viable cell numbers (EMRSA-16 [4]; over the first two hour period, even at 8×MIC): did not give rise to a large reduction in viable cell numbers
effect on cell viability (EMRSA-16 [2]; 4× and 8×MIC, 10 min): little effect on cell viability
membrane permeability (EMRSA-16 [2]; 4×MIC): 48%
membrane permeability (EMRSA-16 [2]; 8×MIC): 64%
Membrane Effect % Control (BacLight) (EMRSA-16 [2]; 512 mcg/ml): 48%
Delta Log 10 (CFU/ml) (EMRSA-16 [2]; 512 mcg/ml): 0.0
Membrane Effect % Control (BacLight) (EMRSA-16 [2]; 1024 mcg/ml): 64%
Delta Log 10 (CFU/ml) (EMRSA-16 [2]; 1024 mcg/ml): 0.1
hemolysis ([3]; 4×MIC): did not give rise to hemolysis
hemolysis ([3]; 8×MIC): 21%
% Hemolysis ([3]; 512 mcg/ml): 6%
% Hemolysis ([3]; 1024 mcg/ml): 21%
effect on cell wall morphology (S. aureus BB551): pseudomulticellular aggregates with increased cell wall thickening

Cc1onc(-c2ccccc2)c1C(=O)N[C@@H]1C(=O)N2[C@@H]1SC(C)(C)[C@@H]2C(=O)O [Oxacillin, oxacillin]
MIC (S. aureus BB568; Staphylococcus aureus; BB568; oxacillin alone; read-out: MIC Oxacillin): 256 µg/mL (≈ 638 µM)
MIC (EMRSA-15; Staphylococcus aureus; EMRSA-15; oxacillin alone; read-out: MIC Oxacillin): 32 µg/mL (≈ 79.7 µM)
MIC (EMRSA-16 [1]; Staphylococcus aureus; EMRSA-16; oxacillin alone; read-out: MIC Oxacillin): 512 µg/mL (≈ 1280 µM)

O=C(O)c1cc(O)c(O)c(O)c1 [Gallic acid]
anti-staphylococcal activity (staphylococcal): no anti-staphylococcal activity

— US20090082429A1, “Antimicrobial Compositions and Methods of Use” (priority 2003, published 2009)
